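These data come from cells grown in 96-well plates and exposed to compound for 48 hours at five concentrations. GI50 marks 50% less growth.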 Calls of active or inactive are those of the source. No stated cut-off is given here; in the data, active = GI50 up to about 1.1 µM and inactive = higher.
Experiments:
Test in all cases: growth of human tumour cells (NCI), 48 h
Hs-578T = system: Hs-578T
NCI-H522 = system: NCI-H522
SW-620 = system: SW-620
KM12 = system: KM12
NCI-H226 = system: NCI-H226
OVCAR-8 = system: OVCAR-8
HT-29 = system: HT-29
BT-549 = system: BT-549
SK-MEL-2 = system: SK-MEL-2
RXF 393 = system: RXF 393
786-0 = system: 786-0
CAKI-1 = system: CAKI-1
LOX IMVI = system: LOX IMVI
SF-295 = system: SF-295
MDA-MB-435 = system: MDA-MB-435
M14 = system: M14
K562 = system: K562
OVCAR-5 = system: OVCAR-5
UACC-62 = system: UACC-62
SN12C = system: SN12C

Measured: GI50

C/C=C(\C)[C@@H](O)C(=O)O[C@@H]1CC(C(C)(C)O)[C@](C)(CCC(=O)OC)[C@H]2[C@H](OC(=O)[C@H](O)[C@H](C)CC)C[C@]3(C)C(=CC[C@H]3[C@H]3CO[C@H](C=C(C)C)C3)[C@]12C (stereo not given in full)
inactive: Hs-578T 19.8 µM | NCI-H522 14.9 µM | SW-620 22.7 µM | KM12 24.8 µM | NCI-H226 19.1 µM | OVCAR-8 17.7 µM | HT-29 19 µM | BT-549 18 µM | SK-MEL-2 17.6 µM | RXF 393 16.4 µM | 786-0 16 µM | CAKI-1 27.7 µM | LOX IMVI 17.6 µM | SF-295 35.4 µM | MDA-MB-435 22.1 µM | M14 18.2 µM | K562 17.8 µM | OVCAR-5 20.5 µM

O=C1CSC2(CC(/C=C/c3ccccc3)=NN2c2cccc(S(=O)(=O)O)c2)N1c1nc2ccccc2s1 (stereo not given)
inactive: Hs-578T 55.5 µM | NCI-H522 19.5 µM | SW-620 29.6 µM | KM12 19.4 µM | NCI-H226 37.5 µM | OVCAR-8 17.9 µM | HT-29 38.3 µM | BT-549 24.8 µM | SK-MEL-2 22.6 µM | RXF 393 22.1 µM | 786-0 18.3 µM | UACC-62 18.9 µM | CAKI-1 38.5 µM | LOX IMVI 9.59 µM | MDA-MB-435 19.5 µM | M14 41.3 µM | K562 35.1 µM | OVCAR-5 27.8 µM | SN12C 28.7 µM

COC1(OC)C2C=CC1C([C@](C)(N)CO)C2 (stereo not given in full)
inactive: Hs-578T > 100 µM | NCI-H522 > 100 µM | SW-620 > 100 µM | KM12 > 100 µM | NCI-H226 > 100 µM | OVCAR-8 > 100 µM | HT-29 > 100 µM | BT-549 > 100 µM | RXF 393 > 100 µM | 786-0 > 100 µM | UACC-62 > 100 µM | CAKI-1 > 100 µM | SF-295 > 100 µM | MDA-MB-435 > 100 µM | M14 > 100 µM | K562 > 100 µM | OVCAR-5 > 100 µM | SN12C > 100 µM

O=C1c2ccccc2-c2nc(/C=C/c3ccccc3)cc3c2c1nc1ccccc13
inactive: Hs-578T 12.3 µM | NCI-H522 10.3 µM | SW-620 20 µM | KM12 18.5 µM | NCI-H226 69.2 µM | OVCAR-8 24.3 µM | HT-29 30.8 µM | BT-549 36.8 µM | SK-MEL-2 21.6 µM | RXF 393 29.2 µM | 786-0 30.5 µM | UACC-62 9.82 µM | CAKI-1 26 µM | SF-295 23 µM | MDA-MB-435 13.9 µM | M14 26.2 µM | K562 3.47 µM | OVCAR-5 > 100 µM | SN12C 33.2 µM

O=NN1CCNC1Cc1ccccc1 (stereo not given)
inactive: Hs-578T > 100 µM | NCI-H522 85.5 µM | SW-620 > 100 µM | KM12 > 100 µM | NCI-H226 > 100 µM | OVCAR-8 > 100 µM | HT-29 > 100 µM | BT-549 > 100 µM | RXF 393 88.7 µM | 786-0 52.8 µM | UACC-62 46.8 µM | LOX IMVI > 100 µM | SF-295 49 µM | MDA-MB-435 > 100 µM | M14 41.6 µM | K562 > 100 µM | OVCAR-5 > 100 µM | SN12C 63 µM

O=C1Oc2ccccc2N/C1=C/C(=O)c1ccc(Cl)cc1
inactive: Hs-578T > 100 µM | NCI-H522 38.1 µM | KM12 > 100 µM | NCI-H226 > 100 µM | OVCAR-8 42.5 µM | HT-29 > 100 µM | BT-549 > 100 µM | SK-MEL-2 > 100 µM | RXF 393 > 100 µM | 786-0 > 100 µM | UACC-62 32.4 µM | CAKI-1 > 100 µM | SF-295 51.4 µM | MDA-MB-435 61.4 µM | M14 > 100 µM | K562 37.1 µM | OVCAR-5 > 100 µM | SN12C > 100 µM
